Non-standard residues stand in square brackets, D forms with d. Residues, ends and D or L forms follow the SMILES beside them. No end group written: not given here. pGlu = O=C1CC[C@@H](C(=O)O)N1
Assays:
[1] = system: pancreatic β-cells; assay: insulin releasing activity (potentiation of the insulin releasing activity of glucose); settings: qualitative ranking among the compounds prepared
[2] = reported in the literature; cited from earlier work

Row | Molecule | activity (insulin releasing) [1] | hyperglycaemic and hyperinsulinaemic activity [2]
1 | O=C(O)CNC(=O)[C@H](CC(=O)O)NC(=O)[C@H](CC(=O)O)NC(=O)[C@@H]1CCC(=O)N1 [p-Glu-Asp-Asp-Gly, H-L-(PYRO) GLUTAMYL-L-ASPARTYL-L-ASPARTYL-GLYCINE] (HELM PEPTIDE1{[Glp].D.D.G}$$$$V2.0) | Especially active | –
2 | NC(=O)CC[C@H](NC(=O)[C@@H]1CCC(=O)N1)C(=O)N[C@@H](CC(=O)O)C(=O)NCC(=O)O [p-Glu-Gln-Asp-Gly, H-L-(PYRO) GLUTAMYL-L-GLUTAMINYL-L-ASPARTYL-GLYCINE] (HELM PEPTIDE1{[Glp].Q.D.G}$$$$V2.0) | most active | –
3 | O=C(O)CC[C@H](NC(=O)[C@@H]1CCC(=O)N1)C(=O)N[C@@H](CC(=O)O)C(=O)NCC(=O)O [p-Glu-Glu-Asp-Gly, H-L-(PYRO) GLUTAMYL-L-GLUTAMYL-L-ASPARTYL-GLYCINE] (HELM PEPTIDE1{[Glp].E.D.G}$$$$V2.0) | Especially active | –
4 | [pGlu]SDG | – | hyperglycaemic and hyperinsulinaemic activity
